According to patent US9029381B2, “Cyclopropyl amide derivatives” (Astrazeneca AB, priority 2007, dated 2015):
pIC50: −log10 of the molar value.

Legend:
[1] = biological target: human histamine H3 receptors (Homo sapiens (Human), UniProt Q9Y5N1); assay: Histamine H3 SPA with the agonist radioligand [3H]-N-α-methylhistamine (hH3 binding); conditions: inhibition of [3H]-N-α-methylhistamine (1.4 nM) binding to CHO-K1 membranes expressing full-length human H3 (isoform 445)
Method: Histamine H3 SPA with the Agonist Radioligand [^3H]-N-α-Methylhistamine
The H3 binding assay was/can be used to evaluate the ability of at least one compound in accordance with formula I, Ia, Ib, and/or Ic to inhibit [^3H]-N-α-methylhistamine binding to CHO-K1 membranes expressing human histamine H3 receptors (full-length H3, the most prevalent brain isoform 445). In 200 μl 96-well SPA format, human H3 membranes (12.5 μg protein/well) and 1.4 nM [^3H]-N-α-methylhistamine were/can be incubated with at least one compound in accordance with formula I, Ia, Ib, and/or Ic for 1.5 hrs to determine percent effect with respect to total (1% DMSO) and non-specific binding (10 μM imetit). […] Single poke (SP) testing can be done in triplicate.
Membranes, prepared from CHO-K1 cells stably expressing the human histamine H3 receptor, can be obtained from ACS.
Tested formula I, Ia, Ib, and/or Ic compounds were/can be provided as solubilized samples in neat DMSO. Serial dilutions were/can be performed in DMSO.
Plates were/can be 96-well Unifilter GF/B (Perkin Elmer, 6005177). Plates were/can be read on a Perkin Elmer TopCount. CPM data was/can be used to analyze unless DPM data generated by a quench curve was/is required.
• 1. 1 mg/ml BSA was/can be added to assay buffer (AB) on day of assay. • 2. Amounts required for bead/membrane pool in AB were/can be calculated: “P”−need 17.1 ml/assay plate+10 ml PlateMate excess. Buffer volume was/can be split between beads and membranes to allow for polytroning of membranes prior to addition to beads. • a. […] A minimum of 15 minutes was/can be waited prior to adding membranes (See b. below). • b. Membranes (hH3 membranes from CHO cells containing recombinant human H3 receptors, 11.7 mg/ml): membranes were/can be removed from −80° C. and thawed in RT waterbath. (0.0702 mg/ml×P) mg of membranes were/can be resuspended in the remaining volume not used with beads above for 12.5 μg/well final and homogenized briefly at polytron speed 5.0. The homogenized membrane mixture was/can be combined with the beads and a minimum of 30 minutes was/can be waited prior to dispensing to plate. • 3. Formula I, Ia, Ib, and/or Ic compounds: For Single Poke, 2 μl mM of a compound in accordance with formula I, Ia, Ib, and/or Ic was/can be dispensed to Optiplates (triplicate plates) for final a concentration of 10 μM. […] Imetit (see below) was/can be used as a control. • 4. […] [^3H]-N-α-methylhistamine ([^3H]-NAMH): A solution in AB at 14 nM, 10× final concentration of 1.4 nM was/can be prepared. 5 μl samples were/can be calculated in quadruplicate on the 13 counter. If concentration was/is 12-14.5 nM, no adjustment was/is may be required. (For IC50s, use final concentration on calculation tab of ABase template.) Assay • 1. […] 2 μl of the formula I, Ia, Ib, and/or Ic compound dilution was/can be mixed and then transferred into assay plates. DMSO was/can be removed and 2 μl of 100 μM Imetit was/can be added to the wells. • 3. 178 μl bead/membrane mixture was/can be dispensed into the assay plate. • 4. 20 μl [^3H]-NAMH was/can be added with Rapid Plate. The assay plate was/can be sealed and incubated for 1.5 hr on RT shaker at speed ˜6.5. • 5. The assay plate was/can be subsequently centrifuged at 1000 rpm for 10 minutes. • 6. The count was/can be performed on TopCount using one of the 3H SPA H3 Quench programs.
The DPM data was/can be analyzed when tSIS was/is less than that associated with 70% of full scale on the quench curve (tSIS<25%). Otherwise, CPM data was/is used.
(§1) The IC50 and nH can be determined by fitting the data to model 205 in XLfit: y=A+((B−A)/(1+((C/x)^D)). Guanosine 5′-O-(3-[^35S]thio)triphosphate [GTPγS] Binding Assay

[2] = biological target: human Histamine H3 receptor (hH3R) (Homo sapiens (Human), UniProt Q9Y5N1); assay: Guanosine 5'-O-(3-[35S]thio)triphosphate [GTPγS] binding assay; assay type: biochemical; conditions: antagonist mode vs (R)-α-methyl histamine 30 nM; membranes from CHO cells expressing hH3R
Method: as §1
A GTPγS binding assay can be used to investigate antagonist properties of compounds in CHO cells (Chinese Hamster Ovary) transfected with human Histamine H3 receptor (hH3R). Membranes from CHO cells expressing hH3R (10 μg/well) are diluted in GTPγS assay buffer (20 mM Hepes, 10 mM MgCl2, 100 mM NaCl, pH 7.4) and preincubated with saponine (3 μg/ml), GDP (10 μM) and PVT-WGA SPA beads (125 μg/well) (Amersham) for 30 minutes. To determine antagonist activity, (R)-α-methyl histamine (30 nM) is added in 96 well SPA plate with [^35S]GTPγS (0.2 nM) and various concentration of H3R antagonists. The GTPγS binding assay is started with addition of the mixture membrane/saponine/GDP and incubated for 90 minutes at room temperature. The amount of bound [^35S]GTPγS is determined by using the MicroBeta Trilux counter (PerkinElmer). The percentage of [^35S]GTPγS bound in each sample is calculated as a percentage of that bound control sample incubated in absence of H3 antagonist. Duplicate determinations are obtained for each concentration, and the data are analyzed using ExcelFit4 to obtain the IC50.

Chain of human histamine H3 receptors (Q9Y5N1 whole entry, canonical isoform): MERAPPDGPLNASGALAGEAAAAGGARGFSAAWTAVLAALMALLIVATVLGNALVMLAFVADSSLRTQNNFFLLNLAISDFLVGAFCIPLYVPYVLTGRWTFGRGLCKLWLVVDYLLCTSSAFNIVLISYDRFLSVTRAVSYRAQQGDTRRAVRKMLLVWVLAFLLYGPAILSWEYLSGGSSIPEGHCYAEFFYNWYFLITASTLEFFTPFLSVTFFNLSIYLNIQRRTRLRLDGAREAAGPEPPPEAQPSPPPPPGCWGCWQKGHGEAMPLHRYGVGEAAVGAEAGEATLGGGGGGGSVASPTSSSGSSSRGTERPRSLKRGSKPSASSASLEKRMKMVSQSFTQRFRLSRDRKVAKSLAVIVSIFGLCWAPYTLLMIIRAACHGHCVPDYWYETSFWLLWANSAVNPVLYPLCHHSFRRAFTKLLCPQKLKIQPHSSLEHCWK
Chain of human Histamine H3 receptor (hH3R) (Q9Y5N1 whole entry): as the sequence (Q9Y5N1 whole entry, canonical isoform) above

| Structure (SMILES) | pIC50 [1] | pIC50 [2] |
| --- | --- | --- |
| CCCN1CCN(C(=O)[C@H]2C[C@@H]2c2ccccc2)CC1 (relative stereo) [Example 7, trans-(2-Phenylcyclopropyl)-(4-propylpiperazin-1-yl)methanone] | 6.84 | 7.40 |
| O=C([C@H]1C[C@@H]1c1ccc(N2CCCC2=O)cc1)N1CCN(C2CCC2)CC1 (relative stereo) [Example 17, trans-1-{4-[2-(4-Cyclobutylpiperazine-1-carbonyl)cyclopropyl]phenyl}pyrrolidin-2-one] | 6.36 | 6.71 |
| O=C([C@H]1C[C@@H]1c1ccc(-c2cn[nH]c2)cc1)N1CCN(C2CCC2)CC1 (relative stereo) [Example 20, trans-{2-[4-(1H-Pyrazol-4-yl)phenyl]cyclopropyl}-(4-cyclobutylpiperazin-1-yl)methanone] | 7.54 | 7.47 |
| O=C([C@H]1C[C@@H]1c1ccc(Br)cc1)N1CCN(C2CCC2)CC1 [Example 14, (1S,2S)-(2-(4-bromophenyl)cyclopropyl)(4-cyclobutylpiperazin-1-yl)methanone] | 7.77 | 8.17 |
| O=C([C@@H]1C[C@H]1c1ccc(Br)cc1)N1CCN(C2CCC2)CC1 [Example 15, (1R,2R)-(2-(4-bromophenyl)cyclopropyl)(4-cyclobutylpiperazin-1-yl)methanone] | 5.47 | 6.58 |
| O=C([C@H]1C[C@@H]1c1ccccc1)N1CCN(C2CCC2)CC1 [Example 24, (4-cyclobutylpiperazin-1-yl)((1S,2S)-2-phenylcyclopropyl)methanone] | 8.46 | 8.47 |

Next, values leading:

| pIC50 [1] | pIC50 [2] | Structure (SMILES) |
| --- | --- | --- |
| 8.29 | 7.62 | O=C([C@H]1C[C@@H]1c1cccc(N2CCCC2=O)c1)N1CCN(C2CCC2)CC1 (relative stereo) [Example 34, trans-1-(3-(2-(4-Cyclobutylpiperazine-1-carbonyl)cyclopropyl)phenyl)pyrrolidin-2-one] |
| 7.84 | 8.23 | NC(=O)c1ccc([C@@H]2C[C@H]2C(=O)N2CCN(C3CCC3)CC2)cc1 (relative stereo) [Example 42, 4-((trans)-2-(4-cyclobutylpiperazine-1-carbonyl)cyclopropyl)benzamide] |
| – | 6.08 | NC(=O)c1ccc([C@@H]2C[C@H]2C(=O)N2CCN(C3CCC3)CC2)cc1 (single isomer, unassigned; enantiomer 2) [Example 44, 4-((trans)-2-(4-cyclobutylpiperazine-1-carbonyl)cyclopropyl)benzamide, enantiomer 2] |
| 5.19 | 6.06 | O=C([C@@H]1C[C@H]1c1ccccc1)N1CCN(C2CCC2)CC1 [Example 25, (4-cyclobutylpiperazin-1-yl)((1R,2R)-2-phenylcyclopropyl)methanone] |
| – | 6.90 | CC(C)N1CCN(C(=O)C2CC2c2cnn(C)c2)CC1 (stereo not drawn) [Example 45, (4-isopropylpiperazin-1-yl)(2-(1-methyl-1H-pyrazol-4-yl)cyclopropyl)methanone] |
| – | 7.69 | O=C([C@H]1C[C@@H]1c1ccc(-c2cncnc2)cc1)N1CCN(C2CCC2)CC1 [Example 46, (4-cyclobutylpiperazin-1-yl)((1S,2S)-2-(4-(pyrimidin-5-yl)phenyl)cyclopropyl)methanone] |
